Activity calls are given as the source filed them.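 The calls were made as follows: active = compounds giving half or more protection of infected cells from virus-caused growth loss, again on retest; inactive = the rest.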
Tested on: CEM cells HIV-1 protection, formazan growth assay
Assay: NCI AIDS Antiviral Assay
Settings: for IC50: measured here: growth of uninfected CEM cells
In short: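 Soluble formazan readout of cell growth; CEM cells ± HIV-1; 5 drug concs. ≥50% protection → retest; ≥50% again = moderately active; reproducible 100% = confirmed active.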

Row | Compound | EC50 [µM] | IC50 [µM] | outcome
1 | CN1C(c2ccccc2)N1C (centres undefined) | > 1700 | > 1700 | –
2 | C/C(=C\C(=O)OCCCCCCCC(N)=O)C(O)[C@@H]1OCC(C/C=C/[C@@H](C)[C@H](C)O)[C@@H](O)[C@H]1O (some centres undefined) | > 200 | > 200 | –
3 | N#C/C(=C\n1ccc(=O)[nH]c1=S)C(=O)c1ccc2ccccc2c1 | > 200 | 123 | –
4 | C[Si](C)(/C(=C/COCc1ccccc1)CCOC1CCCCO1)c1ccccc1 (centres undefined) | > 9.12 | > 9.12 | –
5 | CCOC(=O)C(=O)Nc1nc2c(OCC)cccc2s1 | – | – | inactive
6 | COC(=O)C1(Cc2ccc3c(c2)CCC3)Cc2cc3c(cc2C1=O)CCC3 (centres undefined) | > 200 | 30.9 | –
7 | CC(/C=C/c1ccc(N(C)C)cc1)=N\NC(=S)NCC(C)C | > 200 | 29.5 | –
8 | CCOC1(OCC)N=C(N)C2(C#N)C3(C(=O)N(C(C)C)N=C3C)C12C#N (centres undefined) | > 200 | 166 | –
9 | CC1=Nc2cc(C)c(C)cc2NC(=O)C1 | > 200 | > 200 | –
10 | Cc1ccc(/C=C2\CN(C)CC3=C2NC(=S)NC3c2ccc(C)cc2)cc1 (centres undefined) | > 200 | 25.1 | –
11 | C/C(=N/NC(=O)CC(=O)N(C(=O)c1ccccc1Cl)c1ccc(C)cc1)c1cc2ccccc2oc1=O | > 10 | > 10 | –
12 | O=C1CCC(C(=O)O)C2=C1CCCC2 (centres undefined) | – | – | inactive
13 | CC(C)(C)c1nc2c(o1)C(=Nc1ccc(F)cc1)c1ccccc1C2=O | – | – | inactive
14 | COC(=O)C(CC1CC(=O)N(CCc2c[nH]c3ccccc23)C1)C(=O)OC (centres undefined) | > 191 | > 191 | –
15 | CCOC1CSc2ccccc2C(c2ccccc2)=N1 (centres undefined) | 195 | > 200 | –
16 | COC1=CC(=O)C2[C@H]3Cc4ccccc4[C@H]3C2(C)C1=O (some centres undefined) | > 51.3 | > 51.3 | –
17 | CN(C)/C=N/NC(=O)/C(C#N)=C/N(C)C | > 200 | > 200 | –
18 | COc1ccc(OC)c2c(Nc3ccc(S(=O)(=O)O)c4cc(S(=O)(=O)O)cc(S(=O)(=O)O)c34)cc(C)nc12 | > 200 | > 200 | –

Row | Compound | EC50 [µM] | IC50 [µM] | outcome
19 | CC(=Nc1ccccc1C(=O)[O-])c1c([O-])ccc2c(C)cc(=O)oc12.[Ni+2].[OH3+] | > 2.51 | > 2.51 | –
20 | O=C(Nc1cccc(NC(=O)c2cc(=O)c3ccccc3o2)n1)c1cc(=O)c2ccccc2o1 | > 151 | > 151 | –
21 | O=C(O)O | – | – | inactive
22 | CCOC(=O)c1ccc(C(=O)n2ccnc2)[nH]1 | > 200 | > 200 | –
23 | C=C1C(OC(=O)CC(c2ccccc2)N(C)C)C[C@H](OC(C)=O)[C@]2(C)C1C[C@@H]1CC(OC(C)=O)C(C)=C([C@@H](OC(C)=O)C2OC(C)=O)C1(C)C (some centres undefined) | – | – | inactive
24 | c1coc(-c2cc(-c3cc(-c4ccco4)on3)no2)c1 | > 933 | 589 | –
25 | Nc1nc(Nc2ccc(Cl)c(Cl)c2)nc2nc[nH]c12 | > 200 | 20.9 | –
26 | Cn1c(=O)c2c(nc(CCCCCc3nc4c(c(=O)n(C)c(=O)n4C)n3C)n2C)n(C)c1=O | > 200 | > 200 | –
27 | CCOC(=O)c1nc2ccccc2nc1Nc1ccc(OC)c(OC)c1 | > 200 | > 200 | –
28 | CCN1CC2(C)CCC(OC)C34C5CC6CCC(O)(C5C(=O)O6)C(C(O)C23)C14 (centres undefined) | – | – | inactive
29 | CC(O[Si](C)(C)C(C)(C)C)[C@H](NC(=O)OCC(Cl)(Cl)Cl)C(=O)O (some centres undefined) | > 617 | > 100 | –
30 | O=C(N/N=C\c1ccc([N+](=O)[O-])s1)c1ccncc1 | > 200 | 8.71 | –
31 | COc1cc(O)c2c(c1)O[C@H](C)[C@H](C)C2=O | 100 | > 200 | –
32 | O=c1ccc2cc(O)ccc2o1 | > 200 | > 200 | –
33 | C=C[C@@H]1c2ccccc2C=C[C@]1(CCC1(C)OCCO1)C1=NC(COC)[C@H](c2ccccc2)O1 (some centres undefined) | > 8.13 | > 8.13 | –
34 | CN1N=C(c2ccncc2)OC1c1ccc(C(F)(F)F)cc1 (centres undefined) | > 200 | 132 | –
35 | CC1=CC(=Nc2cccc3c(N=C4C=C(C)C(=O)O4)cccc23)OC1=O | > 200 | 1.41 | –
